Data: patent US12084411B2, “Hinokitiol analogues, methods of preparing and pharmaceutical compositions thereof” (The Board of Trustees of the University of Illinois, priority 2018, dated 2024)
“Also recorded” adds a separate entry of the source.

What was measured:
fet3Δftr1Δ yeast = assay: Growth rescue of fet3Δftr1Δ yeast with small molecules in liquid media; format: cell-based, Saccharomyces cerevisiae; conditions: liquid low iron SD media, 10 μM FeCl3
Procedure: (§1) Growth rescue in yeast was performed similar to previously reported (20) using 10 μM hinokitiol in low iron SD liquid media containing 10 μM FeCl3 in a 96-well plate unless otherwise noted. Wild type and fet3Δftr1Δ controls treated with vehicle (DMSO) were performed under identical conditions using the same low iron SD media containing 10 μM FeCl3 in the absence of hinokitiol. Yeast were grown overnight in YPD media and diluted at an OD600 of 0.1 in SD media, diluted 10-fold, and incubated at 30° C. with continuous shaking (200 rpm). The OD600 was obtained 24-48 hours after inoculation unless otherwise noted.
(§2) Small molecule dose-response (FIG. 1F) with hinokitiol and C2-deoxy hinokitiol (C2deOHino, see synthesis below) was determined by addition of the small molecule (40X stock solution in DMSO) to give the indicated final concentrations.

wild-type yeast (WT) = assay: Toxicity to wild type yeast (structure-activity study, FIG. 25)
Procedure: as §1, §2

[1] = Determination of small molecule iron binding (UV-Vis); conditions: pH 7.0
Procedure: Small molecule iron (III) binding was determined by UV-Vis spectroscopy of small molecules (30 μM) before and after addition of FeCl3 (10 μM) or iron (III) citrate (10 μM, Sigma F3388) in 10 mM MES/Tris buffer at pH=7.0. Iron (II) binding was determined by UV-Vis spectroscopy of small molecules (30 μM) and FeCl2 (10 μM) in a 25 mM MES/Tris buffer at pH=7.0 containing 62.5 mM sodium ascorbate.

DMT1-deficient MEL cells = assay: Live cell fluorescence imaging and flow cytometry of compartmentalized iron in MEL cells; format: cell-based, mouse; conditions: for endosomal oxyburst green, cytosolic calcein green and mitochondrial RPA fluorescence: 1 μM
Procedure: To visualize cytosolic and mitochondrial iron, confocal imaging of calcein green and RPA fluorescence was performed, respectively. MEL cells were induced for differentiation as described above. […] The cells were incubated for an additional 2 hours, and then were centrifuged and rinsed with PBS. […] The cells were then incubated at 37° C. for 15 minutes. […] The cells were then imaged within 10 minutes on a LSM710 microscope. Relative calcein green and RPA fluorescence per cell was determined by ImageJ analysis using >100 cells per experiment. […] MEL cells were induced for differentiation as described above. […] The cells were incubated for an additional 2 hours, and then were centrifuged and rinsed with PBS. The cells were then re-suspended in DMEM-HEPES buffer, and H2O2 (50 mM final concentration) was added. The cells were incubated at room temperature, and the oxyburst green fluorescence was then determined 10 minutes after addition of H2O2 on a LSM710 microscope. Relative oxyburst green fluorescence per cell was determined by ImageJ analysis using >100 cells per experiment. […] Median fluorescence was then normalized to shDMT1 for each dye. […] Median fluorescence was then normalized to shDMT1 for each dye.

J774 macrophages = assay: Temporal imaging of cytosolic iron levels in J774 macrophages; format: cell-based, mouse; conditions: for calcein green fluorescence after reversal of the gradient: external FeCl3 100 μM at t=12 min; for calcein green fluorescence after small molecule addition: iron-loaded cells, 100 μM small molecule at t=5 min
Procedure: To assess for the capacity for hinokitiol to reversibly and autonomously transport iron across the plasma membrane through the creation of artificial iron gradients, J774 macrophages were grown in Ibidi dishes (Ibidi NC0723624) to ˜80% confluency before incubation with J774 Complete media containing 5 mM ascorbic acid and 200 μM FeSO4. The cells were incubated for 1.5 hours, media was aspirated, and the cells were rinsed with PBS. The cells were then incubated with calcein green-AM (1 μM) in DMEM for 20 minutes at 37° C. The media was aspirated and cells were rinsed (×2) with PBS before DMEM (pH=7.4 in 10 mM HEPES) and 1 mM probenecid (Sigma P8761) was added. Calcein green fluorescence was then imaged on a LSM880 microscope at 37° C. with 5% CO2 at the indicated time points for 30 minutes. Hinokitiol (100 μM final concentration), C2deOHino (100 μM final concentration), or DMSO (all from 1000X stocks in 50 μL DMEM) were added at 5 minutes, and a solution of FeCl3 (100 μM final concentration, in 50 μL DMEM) was added at 12 minutes. Fluorescence in each image at each time point was analyzed by ImageJ analysis then normalized to the fluorescence at t=0 for each image using >100 cells per experiment.

DMT1-deficient zebrafish = conditions: two days; for hemoglobinization (GFP-positive erythroids): 1 μM in water from 24 hpf; for number of fish with high hemoglobin levels (o-dianisidine): heterozygous cross of +/cdy fish
Procedure: The morpholinos (MOs) were purchased from GeneTools, LLC (Philomath, OR). The sequences of the MO used were as follows: dmt1 MO: 5′-[…]-3′; mfrnl MO: 5′-[…]-3′. Zebrafish embryos at the 1-cell stage were injected with MOs as previously described (72, 78). o-dianisidine staining for hemoglobinized cells in embryos was as previously described (79). Quantification by flow cytometry using fluorescently labeled erythrocytes from the transgenic Tg(globinLCR:eGFP) line (50) was performed as previously described (72, 75). Semi-quantitative RT-PCR of dmt1 mRNA in morphants was performed using custom designed probes as previously described (80). The sequences of the dmt1 primers are as follows: 5′-[…]-3′ (Fwd); 5′-[…]-3′ (Rev). The sequences of the control actb primers were as follows: 5′-[…]-3′ (Fwd); 5′-[…]-3′ (Rev).
(§3) Either mutant or morphant embryos were allowed to develop to >24 hours post fertilization (hpf), then dechorionated with pronase as previously described (81). The dechorionated embryos or morphants were then incubated in the presence of 1 μM hinokitiol (or vehicle) and 10 μM iron (III) citrate for an additional forty-eight hours. Vehicle treated embryos were exposed to […]. C2deOHino (1 μM) with iron (III) citrate (10 μM) was used as a negative control. Control and either mutant or morphant embryos at ˜72 hpf were either (a) directly stained by o-dianisidine (79) or (b) mechanically homogenized as previously described for flow cytometry (75, 78).

[2] = tested on: Alas2-deficient sauternes zebrafish; assay: Hemoglobinization in Alas2-deficient sauternes zebrafish; format: in vivo, Danio rerio; conditions: heterozygous cross of +/sau fish, 1 μM, 48 hours
Procedure: as §3

Caco-2 = assay: WST-8 toxicity in Caco-2 cells
Procedure: Determination of small molecule-mediated toxicity in Caco-2, MEL, and/or J774 cells was performed according to manufacturer instructions using a WST-8 kit (Cayman Chemical 10010199) similar to previously reported (76) using a 1000× stock of the indicated small molecule in DMSO to give the indicated final concentration.

[3] = DMT1-deficient morphant zebrafish

SMILES	restoration of fet3Δftr1Δ yeast growth, small molecule dose-response (fet3Δftr1Δ yeast)	restoration of fet3Δftr1Δ yeast growth, small molecule dose-response (fet3Δftr1Δ yeast; listed as Hinokitiol)	toxicity to wild type yeast (wild-type yeast (WT))	iron binding [1]	endosomal oxyburst green, cytosolic calcein green and mitochondrial RPA fluorescence (DMT1-deficient MEL cells)	decrease of oxyburst green fluorescence (DMT1-deficient MEL cells; hinokitiol 1 μM)	calcein green fluorescence after reversal of the gradient (J774 macrophages)	calcein green fluorescence after small molecule addition (J774 macrophages)	hemoglobinization (GFP-positive erythroids) (DMT1-deficient zebrafish; [3])	observable toxicity (DMT1-deficient zebrafish; DMT1-deficient morphant zebrafish, 1 μM)	number of fish with high hemoglobin levels (o-dianisidine) (DMT1-deficient zebrafish)	hemoglobinization [2]	hemoglobinization ([2]; listed as Hinokitiol)	observable toxicity (Caco-2; Caco-2 monolayers, hinokitiol 500 nM)	EC90 (Caco-2; read-out: Toxicity (EC90), Wild Type Caco-2, WST-8 assay after ≥24 hours of incubation)
CC(C)c1cccc(=O)c(O)c1 [hinokitiol]	dose-dependently restores yeast growth	rescues growth of iron transporter-deficient yeast (Fet3Ftr1) at low concentrations	kills wild-type yeast (WT) only at high concentrations	binds iron (III)	decreases endosomal oxyburst green fluorescence and quenches calcein green and RPA fluorescence	2.1 fold	quenching of calcein green fluorescence was observed	rapidly increased calcein green fluorescence	promoted hemoglobinization	without observable toxicity	increased the number of fish exhibiting high hemoglobin levels	did not rescue	do not promote hemoglobinization	no observable toxicity	–
CC(C)c1cccc(=O)cc1 [C2deOHino, C2-deoxy hinokitiol]	no biological activity; also recorded: does not	–	no biological activity	does not bind iron; also recorded: cannot bind or transport iron	no effect	–	no effect	no effect	no effect	–	no effect	do not promote hemoglobinization	–	–	> 100 µM
